In PMC8355704, “Designing Modular Cell-free Systems for Tunable Biotransformation of L-phenylalanine to Aromatic Compounds” (Frontiers in Bioengineering and Biotechnology, 2021):

Columns and labels:
Assay type in all cases: biochemical
[1] = target: T1, phenylacrylic acid decarboxylase (PAD, containing two enzymes Fdc1 and Pad1) (Aspergillus niger, UniProt A2QHE5); experiment: GC-MS detection of product styrene in cell-free expression mixture; settings: unpurified E. coli CFPS lysate; control without plasmid; Fdc1 coexpressed with Pad1
T1 construct: codon-optimised Fdc1 and Pad1 genes in pET28a, coexpressed by E. coli cell-free protein synthesis, not purified; with Flavin prenyltransferase PAD1, mitochondrial

[2] = target: T2, styrene monooxygenase (SMO, consisting of two subunit enzymes StyA and StyB) (Pseudomonas sp., UniProt O50214); experiment: GC-MS detection of product styrene oxide in cell-free expression mixture; settings: unpurified E. coli CFPS lysate; control without plasmid; StyA coexpressed with StyB; NADH from lysate
T2 construct: pET28a-StyA and pET28a-StyB coexpressed by E. coli cell-free protein synthesis, two separate chains, not purified; with Styrene monooxygenase StyB (NADH-flavin oxidoreductase component)
T2 sequence (O50214 1-415): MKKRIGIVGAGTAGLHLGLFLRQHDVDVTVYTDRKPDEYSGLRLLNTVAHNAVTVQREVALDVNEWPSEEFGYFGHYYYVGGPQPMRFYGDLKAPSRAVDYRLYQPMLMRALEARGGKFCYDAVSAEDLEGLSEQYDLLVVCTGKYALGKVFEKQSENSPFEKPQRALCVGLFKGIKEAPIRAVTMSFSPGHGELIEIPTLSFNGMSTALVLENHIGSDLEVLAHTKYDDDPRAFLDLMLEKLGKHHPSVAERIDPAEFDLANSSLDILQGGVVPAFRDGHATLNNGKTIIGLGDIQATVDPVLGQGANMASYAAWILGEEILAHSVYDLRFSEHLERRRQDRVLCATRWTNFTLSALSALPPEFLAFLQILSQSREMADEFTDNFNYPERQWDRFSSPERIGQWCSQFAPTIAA

[3] = target: T3, styrene oxide isomerase (StyC, SOI) (Pseudomonas sp. VLB120, UniProt O50216); experiment: GC-MS detection of product phenylacetaldehyde in cell-free expression mixture; settings: unpurified E. coli CFPS lysate; control without plasmid
T3 construct: gene stdC; codon-optimised gene in pET28a, made by E. coli cell-free protein synthesis, not purified; membrane protein
T3 sequence (O50216 1-169): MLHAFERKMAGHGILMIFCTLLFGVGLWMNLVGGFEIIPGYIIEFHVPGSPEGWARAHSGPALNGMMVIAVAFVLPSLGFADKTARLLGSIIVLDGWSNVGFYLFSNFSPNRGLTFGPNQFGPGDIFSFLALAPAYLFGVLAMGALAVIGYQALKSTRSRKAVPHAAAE

[4] = target: T4, phenylalanine ammonia lyase 2 (PAL2) (Arabidopsis thaliana, UniProt P45724); experiment: GC-MS detection of product cinnamic acid in cell-free expression mixture; settings: unpurified E. coli CFPS lysate; control without plasmid
T4 construct: codon-optimised gene in pET28a (NdeI/SalI), made by E. coli cell-free protein synthesis, not purified
T4 sequence (P45724 whole entry): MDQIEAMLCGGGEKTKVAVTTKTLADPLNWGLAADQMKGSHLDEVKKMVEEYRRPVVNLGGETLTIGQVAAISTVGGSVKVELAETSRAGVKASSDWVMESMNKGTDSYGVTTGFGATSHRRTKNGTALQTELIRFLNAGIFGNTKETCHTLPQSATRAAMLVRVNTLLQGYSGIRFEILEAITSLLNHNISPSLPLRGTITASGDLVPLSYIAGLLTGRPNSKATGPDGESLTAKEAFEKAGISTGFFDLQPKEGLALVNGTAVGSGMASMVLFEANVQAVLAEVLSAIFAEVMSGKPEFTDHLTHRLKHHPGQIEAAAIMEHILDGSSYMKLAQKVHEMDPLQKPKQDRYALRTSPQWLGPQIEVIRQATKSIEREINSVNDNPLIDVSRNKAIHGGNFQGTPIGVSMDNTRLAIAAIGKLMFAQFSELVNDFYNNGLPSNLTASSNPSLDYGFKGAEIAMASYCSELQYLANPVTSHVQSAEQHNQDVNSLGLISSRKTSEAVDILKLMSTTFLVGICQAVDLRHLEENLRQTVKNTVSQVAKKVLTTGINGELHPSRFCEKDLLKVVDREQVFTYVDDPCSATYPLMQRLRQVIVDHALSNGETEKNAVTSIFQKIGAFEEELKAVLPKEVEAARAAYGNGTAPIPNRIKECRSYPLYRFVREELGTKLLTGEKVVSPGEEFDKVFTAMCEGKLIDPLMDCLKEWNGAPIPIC

SMILES: O=C(O)/C=C/c1ccccc1 [compound 2, cinnamic acid]
- GC-MS detection of product styrene in cell-free expression mixture [1]: the conversion of cinnamic acid to styrene requires two enzymes Fdc1 and Pad1

SMILES: C=Cc1ccccc1 [compound 3, styrene]
- GC-MS detection of product styrene oxide in cell-free expression mixture [2]: two subunit enzymes StyA and StyB to oxidize styrene to styrene oxide

SMILES: c1ccc(C2CO2)cc1 (stereo not shown) [compound 4, styrene oxide]
- GC-MS detection of product phenylacetaldehyde in cell-free expression mixture [3]: all cell-free expressed enzymes were active to convert their substrates to the corresponding products

SMILES: N[C@@H](Cc1ccccc1)C(=O)O [compound 1, L-phenylalanine]
- GC-MS detection of product cinnamic acid in cell-free expression mixture [4]: each target compound was detected by GC-MS
